We go through 66 compounds from patent US7906656B2, “Iodopyrazolyl carboxanilides” (Bayer CropScience AG, priority 2003, dated 2011).

The subject of one data set is Venturia inaequalis. The data set can be described thus: Venturia test (apple)/protective. Type of data set: in vivo. Conditions: 240 h, protective, application rate 100 g/ha, evaluation 10 days after inoculation, read-out: Efficacy in %. The protocol: (§1) To produce a suitable preparation of active compound, 1 part by weight of active compound is mixed with the stated amounts of solvents and emulsifier, and the concentrate is diluted with water to the desired concentration. To test for protective activity, young plants are sprayed with the preparation of active compound at the stated application rate. After the spray coating has dried on, the plants are inoculated with an aqueous conidia suspension of the apple pathogen Venturia inaequalis and then remain in an incubation cabin at about 20° C. and 100% relative atmospheric humidity for 1 day. The plants are then placed in a greenhouse at about 21° C. and a relative atmospheric humidity of about 90%. Evaluation is carried out 10 days after the inoculation. 0% means an efficacy which corresponds to that of the control, whereas an efficacy of 100% means that no infection is observed.
For `Cc1ccc(-c2ccccc2NC(=O)c2cn(C)nc2I)cc1F` [drawing 77], the pest or weed control at 100 g/ha was determined as 97%.

As for `Cn1cc(C(=O)Nc2ccccc2-c2ccc(F)c(Cl)c2)c(I)n1` [drawing 73], the pest or weed control at 100 g/ha came to 100%.

For the compound `Cn1cc(C(=O)Nc2ccccc2-c2ccc(I)cc2)c(I)n1` [drawing 81], the pest or weed control at 100 g/ha turned out to be 99%.

On to `Cn1cc(C(=O)Nc2ccccc2-c2ccc(Cl)c(F)c2)c(I)n1` [drawing 75], for which the pest or weed control at 100 g/ha was 100%.

Consider `Cn1cc(C(=O)Nc2ccccc2-c2ccc(Cl)cc2)c(I)n1` [drawing 80], for which the pest or weed control at 100 g/ha is 100%.

With `CC(CC(C)(C)C)c1ccccc1NC(=O)c1cn(C)nc1I` (stereo not drawn) [drawing 69], the pest or weed control at 100 g/ha came to 100%.

For the compound `Cn1cc(C(=O)Nc2ccc(F)cc2-c2ccc(Cl)c(Cl)c2)c(I)n1` [drawing 72], the pest or weed control at 100 g/ha was 100%.

In the case of `CC(C)CC(C)c1ccccc1NC(=O)c1cn(C)nc1I` (stereo not drawn) [drawing 70], the pest or weed control at 100 g/ha came out at 100%.

Turning to `CC1CC(C)(C)c2cccc(NC(=O)c3cn(C)nc3I)c21` (stereo not drawn) [drawing 83], the pest or weed control at 100 g/ha was determined as 100%.

`CCCO/N=C/c1ccc(-c2ccccc2NC(=O)c2cn(C)nc2I)cc1F` [drawing 76]: the pest or weed control at 100 g/ha amounted to 100%.

For `Cn1cc(C(=O)Nc2ccccc2-c2ccc(Br)cc2)c(I)n1` [drawing 74], the pest or weed control at 100 g/ha came to 100%.

Consider `CC(C)CC(C)c1cc(F)ccc1NC(=O)c1cn(C)nc1I` (stereo not drawn) [drawing 84], for which the pest or weed control at 100 g/ha was found to be 100%.

Take `Cn1cc(C(=O)Nc2ccccc2-c2ccc(Cl)c(Cl)c2)c(I)n1` [drawing 71]: the pest or weed control at 100 g/ha came to 99%.

Regarding `Cn1cc(C(=O)Nc2ccccc2-c2ccc(C(F)(F)F)c(F)c2)c(I)n1` [drawing 79], the pest or weed control at 100 g/ha worked out at 98%.

`CC(C)CCc1ccccc1NC(=O)c1cn(C)nc1I` [drawing 82]: the pest or weed control at 100 g/ha amounted to 98%.

A further data set concerns Podosphaera leucotricha. Briefly: Podosphaera test (apple)/protective. As to conditions: 240 h, protective, application rate 100 g/ha, evaluation 10 days after inoculation, read-out: Efficacy in %. It counts as in vivo. The protocol:
as §1, with “spore” for “conidia”, “apple mildew” for “apple”, “Podosphaera leucotricha.” for “Venturia inaequalis and then remain in an incubation cabin at about 20° C. and 100% relative atmospheric humidity for 1 day.”, “23°” for “21°”, “70%.” for “90%.”
On to `CC(C)CC(C)c1cc(F)ccc1NC(=O)c1cn(C)nc1I` (stereo not drawn) [drawing 68], for which the pest or weed control at 100 g/ha was found to be 100%.

As to `Cn1cc(C(=O)Nc2ccccc2-c2ccc(Cl)c(F)c2)c(I)n1` [drawing 59], the pest or weed control at 100 g/ha stood at 100%.

As for `CC(C)CC(C)c1ccccc1NC(=O)c1cn(C)nc1I` (stereo not drawn) [drawing 54], the pest or weed control at 100 g/ha stood at 100%.

As for `Cc1ccc(-c2ccccc2NC(=O)c2cn(C)nc2I)cc1F` [drawing 61], the pest or weed control at 100 g/ha was 100%.

Turning to `Cn1cc(C(=O)Nc2ccccc2-c2ccc(Br)cc2)c(I)n1` [drawing 58], the pest or weed control at 100 g/ha was found to be 100%.

`CC(CC(C)(C)C)c1ccccc1NC(=O)c1cn(C)nc1I` (stereo not drawn) [drawing 53]: the pest or weed control at 100 g/ha came out at 100%.

Regarding `Cn1cc(C(=O)Nc2ccccc2-c2ccc(F)c(Cl)c2)c(I)n1` [drawing 57], the pest or weed control at 100 g/ha was 100%.

On to `Cn1cc(C(=O)Nc2ccccc2-c2ccc(C(F)(F)F)cc2)c(I)n1` [drawing 62], for which the pest or weed control at 100 g/ha was found to be 88%.

On to `Cn1cc(C(=O)Nc2ccccc2-c2ccc(C(F)(F)F)c(F)c2)c(I)n1` [drawing 63], for which the pest or weed control at 100 g/ha was 99%.

In the case of `Cn1cc(C(=O)Nc2ccccc2-c2ccc(Cl)cc2)c(I)n1` [drawing 64], the pest or weed control at 100 g/ha is 100%.

On to `CC1CC(C)(C)c2cccc(NC(=O)c3cn(C)nc3I)c21` (stereo not drawn) [drawing 67], for which the pest or weed control at 100 g/ha came to 100%.

`CC(C)CCc1ccccc1NC(=O)c1cn(C)nc1I` [drawing 66]: the pest or weed control at 100 g/ha was determined as 98%.

On to `Cn1cc(C(=O)Nc2ccccc2-c2ccc(Cl)c(Cl)c2)c(I)n1` [drawing 55], for which the pest or weed control at 100 g/ha was determined as 99%.

Turning to `Cn1cc(C(=O)Nc2ccc(F)cc2-c2ccc(Cl)c(Cl)c2)c(I)n1` [drawing 56], the pest or weed control at 100 g/ha came out at 100%.

Turning to `Cn1cc(C(=O)Nc2ccccc2-c2ccc(I)cc2)c(I)n1` [drawing 65], the pest or weed control at 100 g/ha came out at 100%.

For `CCCO/N=C/c1ccc(-c2ccccc2NC(=O)c2cn(C)nc2I)cc1F` [drawing 60], the pest or weed control at 100 g/ha was determined as 100%.

Test system in another data set: not listed separately
Briefly: log P determination by HPLC on reversed-phase column (EEC directive 79/831 Annex V.A8). Type of data set: physicochemical. Conditions: pH 2.3; HPLC reversed-phase C18, 43° C. The protocol:
The given log P values were determined in accordance with EEC directive 79/831 Annex V.A8 by HPLC (High Performance Liquid Chromatography) on a reversed-phase column (C18). Temperature: 43° C. Mobile phases for the determination in the acidic range (pH 2.3): 0.1% aqueous phosphoric acid, acetonitrile; linear gradient from 10% acetonitrile to 90% acetonitrile. Calibration was carried out using unbranched alkan-2-ones (having 3 to 16 carbon atoms) with known log P values (determination of the log P values by the retention times using linear interpolation between two successive alkanones).
Usually logP stands for a log measure of how a compound divides between an organic and an aqueous phase. Read a high logP as higher lipophilicity. With `Cn1cc(C(=O)Nc2ccccc2C#CC(C)(C)C)c(I)n1` [Compound 22], the logP stood at 3.79.

Take `Cn1cc(C(=O)Nc2ccccc2-c2ccc(Br)cc2)c(I)n1` [Compound 9]: the logP was 3.20.

`Cn1cc(C(=O)Nc2ccccc2-c2ccc(F)c(Cl)c2)c(I)n1` [Compound 8] yielded a logP of 3.09.

With `Cn1cc(C(=O)Nc2ccccc2CCC(C)(C)C)c(I)n1` [Compound 18], the logP amounted to 3.34.

`CC(CC1CC1)c1ccccc1NC(=O)c1cn(C)nc1I` (stereo not drawn) [Compound 15] gave a logP of 3.08.

On to `Cn1cc(C(=O)Nc2ccccc2-c2ccc(Cl)cc2)c(I)n1` [Compound 14], for which the logP was 3.08.

Compound `Cn1cc(C(=O)Nc2ccccc2-c2ccc(Cl)c(Cl)c2)c(I)n1` [Compound 2] showed a logP of 3.38.

Regarding `Cn1cc(C(=O)Nc2ccccc2-c2ccc(Cl)c(F)c2)c(I)n1` [Compound 3], the logP was found to be 3.09.

Compound `CCCON=Cc1ccc(-c2ccccc2NC(=O)c2cn(C)nc2I)cc1F` [Compound 5] registered a logP of 4.00.

For `CC(C)CC(C)c1ccccc1NC(=O)c1cn(C)nc1I` (stereo not drawn) [Compound 4], the logP is listed as 3.36.

The compound `Cn1cc(C(=O)Nc2ccccc2-c2ccc(Br)c(Cl)c2)c(I)n1` [Compound 31] came in with a logP of 3.45.

As to `CC(C)CC(C)c1cc(F)ccc1NC(=O)c1cn(C)nc1I` (stereo not drawn) [Compound 20], the logP came out at 3.39.

The compound `CC(=CC(C)C)c1ccccc1NC(=O)c1cn(C)nc1I` [Compound 12] returned a logP of 3.62.

Compound `Cn1cc(C(=O)Nc2ccccc2-c2ccc(C(F)(F)F)c(F)c2)c(I)n1` [Compound 11] gave a log partition coefficient (logP) of 3.23.

Consider `Cn1cc(C(=O)Nc2ccccc2-c2ccc(C(F)(F)F)cc2)c(I)n1` [Compound 10], for which the logP was determined as 3.24.

Turning to `C=C(c1ccccc1NC(=O)c1cn(C)nc1I)C(C)C` [Compound 25], the logP is reported as 3.28.

`Cn1cc(C(=O)Nc2ccccc2-c2ccc(C(F)(F)F)cc2Cl)c(I)n1` [Compound 30] showed a lipophilicity (logP) of 3.55.

Take `CC(C)=C(C)c1ccccc1NC(=O)c1cn(C)nc1I` [Compound 27]: the logP is given as 3.40. This logP and that of the compound before are within 0.2 log units of each other.

With `C=C(C)CC(C)(O)c1ccccc1NC(=O)c1cn(C)nc1I` (stereo not drawn) [Compound 13], the logP was found to be 2.54.

`Cn1cc(C(=O)Nc2ccccc2-c2cccc(Cl)c2Cl)c(I)n1` [Compound 28]: the logP was 3.34.

For `C=C(CC(C)(C)C)c1ccccc1NC(=O)c1cn(C)nc1I` [Compound 26], the log partition coefficient (logP) is given as 3.82.

`Cn1cc(C(=O)Nc2ccccc2-c2cccc(Cl)c2F)c(I)n1` [Compound 17] showed a logP of 2.99.

The compound `CC1CC(C)(C)c2cccc(NC(=O)c3cn(C)nc3I)c21` (stereo not drawn) [Compound 19] showed a logP of 3.27.

In the case of `CC(C)CCc1ccccc1NC(=O)c1cn(C)nc1I` [Compound 24], the logP turned out to be 3.15. The logP values of the last two compounds are within 0.2 log units of each other.

In turn, `CC(CC(C)(C)C)c1ccccc1NC(=O)c1cn(C)nc1I` (stereo not drawn) [Compound 1] displayed a logP of 3.64.

Consider `Cn1cc(C(=O)Nc2ccccc2-c2ccc(Br)cc2Cl)c(I)n1` [Compound 32], for which the lipophilicity (logP) worked out at 3.56. This logP and that of the compound before are within 0.2 log units of each other.

The compound `CC(=O)N(C(=O)c1cn(C)nc1I)c1ccccc1C(C)CC(C)C` (stereo not drawn) [Compound 21] gave a logP of 3.68.

With `Cc1ccc(-c2ccccc2NC(=O)c2cn(C)nc2I)cc1F` [Compound 7], the logP is 3.18.

In the case of `CON=C(c1ccc(-c2ccccc2NC(=O)c2cn(C)nc2I)cc1)C(F)(F)F` [Compound 23], the logP is listed as 3.70.

With `Cn1cc(C(=O)Nc2ccccc2-c2ccc(I)cc2)c(I)n1` [Compound 16], the logP is reported as 3.36.

Still in this data set, the particulars now being: reversed-phase C18 HPLC column; pH 2.3; HPLC reversed-phase C18, 43° C.
What is called chromatographic logP is lipophilicity estimated from chromatographic retention. The low end stands for a more hydrophilic compound, the high end for a more lipophilic compound. `CCOC(=O)c1cn(C)nc1N` [ethyl 3-amino-1-methyl-1H-pyrazole-4-carboxylate] displayed a chromatographic logP of 0.72.

`CCOC(=O)c1cn(C)nc1I` [ethyl 3-iodo-1-methyl-1H-pyrazole-4-carboxylate]: the chromatographic logP is 1.74.

`CCOC(=O)/C(C#N)=C\N(C)/N=C/c1ccccc1` [ethyl 3-(N′-benzylidene-N-methylhydrazino)-2-cyanoacrylate]: the chromatographic logP amounted to 2.31.

Compound `Cn1cc(C(=O)Nc2ccc(F)cc2-c2ccc(Cl)c(Cl)c2)c(I)n1` [Compound 6, N-(3′,4′-dichloro-5-fluoro-1,1′-biphenyl-2-yl)-3-iodo-1-methyl-1H-pyrazole-4-carboxamide] returned a chromatographic logP of 3.42.

Consider `Cn1cc(C(=O)O)c(I)n1` [3-iodo-1-methyl-1H-pyrazole-4-carboxylic acid], for which the chromatographic logP is 0.57.
